Measurements: ChEMBL document CHEMBL4342407, “Thieno[2,3-d]pyrimidine as a promising scaffold in medicinal chemistry: Recent advances” (Bioorg Med Chem, 2019)

Tests used:
[1] = tested on: MCF7; assay: Antiproliferative activity against human MCF7 after 24 hrs by MTT assay; format: functional, cell-based; conditions: MCF7, 24 h
[2] = tested on: HeLa; assay: Antiproliferative activity against human HeLa after 24 hrs by MTT assay; format: functional, cell-based
[3] = tested on: Bacillus subtilis; assay: Antibacterial activity against Bacillus subtilis assessed as zone inhibition at 100 ug/ml; format: functional; conditions: read-out: IZ
[4] = tested on: Staphylococcus aureus; assay: Antibacterial activity against Staphylococcus aureus assessed as zone inhibition at 100 ug/ml; format: functional; conditions: read-out: IZ
[5] = tested on: Klebsiella pneumoniae; assay: Antibacterial activity against Klebsiella pneumoniae assessed as zone inhibition at 100 ug/ml; format: functional; conditions: read-out: IZ
[6] = tested on: Escherichia coli; assay: Antibacterial activity against Escherichia coli assessed as zone inhibition at 100 ug/ml; format: functional; conditions: read-out: IZ
[7] = tested on: Rattus norvegicus; assay: Antiinflammatory activity in Sprague-Dawley rat assessed as protection against carrageenan-induced edema at 40 mg/kg, po pretreated for 1 hr followed by carrageenan challenge and measured after 3 hrs by mercury plethysmometer relative to control; format: functional
[8] = Ulcerogenic activity in Wistar albino rat assessed as ulcer index at 250 mg/kg, ip pretreated for 1 hr followed by pylorus ligation and measured at 4 hrs post ligation; format: toxicity, organism-based; conditions: in vivo
[9] = tested on: Rattus norvegicus; assay: Anti-ulcer activity in Wistar albino rat assessed as reduction in pylorus ligation induced ulcer at 250 mg/kg, ip pretreated for 1 hr followed by pylorus ligation and measured at 4 hrs post ligation; format: functional
[10] = tested on: ECa-109 cell line; assay: Antiproliferative activity against human EC109 at 50 ug/ml after 48 hrs by MTT assay; format: functional; conditions: ECa-109, 48 h
[11] = tested on: HepG2; assay: Antiproliferative activity against human HepG2 at 50 ug/ml after 48 hrs by MTT assay; format: functional; conditions: HepG2, 48 h
[12] = tested on: MGC-803; assay: Antiproliferative activity against human MGC803 at 50 ug/ml after 48 hrs by MTT assay; format: functional; conditions: MGC-803, 48 h
[13] = tested on: Bacillus subtilis; assay: Antibacterial activity against Bacillus subtilis assessed as zone inhibition at 500 ug/ml by cup plate agar diffusion method; format: functional; conditions: read-out: IZ
[14] = tested on: Staphylococcus aureus; assay: Antibacterial activity against Staphylococcus aureus assessed as zone inhibition at 500 ug/ml by cup plate agar diffusion method; format: functional; conditions: read-out: IZ
[15] = tested on: Escherichia coli; assay: Antibacterial activity against Escherichia coli assessed as zone inhibition at 500 ug/ml by cup plate agar diffusion method; format: functional; conditions: read-out: IZ
[16] = tested on: Pseudomonas aeruginosa; assay: Antibacterial activity against Pseudomonas aeruginosa assessed as zone inhibition at 500 ug/ml by cup plate agar diffusion method; format: functional; conditions: read-out: IZ
[17] = tested on: HepG2; assay: Antiproliferative activity against human HepG2 after 24 hrs by MTT assay; format: functional, cell-based; conditions: HepG2, 24 h
[18] = tested on: HEp-2; assay: Antiproliferative activity against human Hep2 after 24 hrs by MTT assay; format: functional, cell-based; conditions: HEp-2, 24 h
[19] = tested on: PC-3; assay: Antiproliferative activity against human PC3 after 24 hrs by MTT assay; format: functional, cell-based; conditions: PC-3, 24 h
[20] = tested on: Rattus norvegicus; assay: Antiinflammatory activity in po dosed Wistar rat assessed as reduction in carrageenan-induced paw edema pretreated for 1 hr followed by carrageenan challenge and measured over 2 to 4 hrs post carrageenan challenge by plethysmography; format: functional
[21] = tested on: Rattus norvegicus; assay: Antiinflammatory activity in Wistar rat assessed as inhibition of cotton pellet-induced granuloma at 75 mg/kg, po administered daily for 7 days and measured on day 8 relative to control; format: functional
[22] = tested on: Rattus norvegicus; assay: Antiinflammatory activity in Wistar rat model of Freund's adjuvant-induced arthritis assessed as inhibition of arthritis by measuring reduction in paw volume at 75 mg/kg, po administered once daily for 8 days starting from day 7 post Freund's adjuvant treatment and measured after 18 days by mercury plethysmography relative to control; format: functional
[23] = tested on: Mus musculus; assay: Antiinflammatory activity in Swiss mouse assessed as inhibition of TPA-induced ear edema at 1 mg/ear applied topically and measured 4 hrs post-TPA challenge relative to control; format: functional
[24] = tested on: Candida albicans; assay: […] activity against Candida albicans assessed as zone inhibition at 500 ug/ml by cup plate agar diffusion method; format: functional; conditions: read-out: IZ

## Nc1c(C(=O)Nc2ccc(Cl)cc2)sc2nc(N3CCOCC3)nc(-c3ccccc3)c12
[1]
  IC50: 18.9 µM
[2]
  IC50: 50 µM

## CC1(C)S[C@@H]2[C@H](NC(=O)[C@H](N)c3ccc(O)cc3)C(=O)N2[C@H]1C(=O)O [AMOXICILLIN]
[3]
  zone of inhibition at 100 µg/mL: 15.5 mm
[4]
  zone of inhibition at 100 µg/mL: 17.6 mm
[5]
  zone of inhibition at 100 µg/mL: 18 mm
[6]
  zone of inhibition at 100 µg/mL: 19.5 mm

## COc1ccc(NC(=O)c2sc3nc(N4CCOCC4)nc(-c4ccccc4)c3c2N)cc1
[1]
  IC50: 27.8 µM
[2]
  IC50: 61.9 µM

## C[C@]12CC[C@H]3[C@@H](CC=C4CC(O)CC[C@@]43C)[C@@H]1CC[C@@H]2c1csc(N)c1-c1nnc(S)n1-c1ccccc1 (stereo not given in full)
[7]
  Activity: 96%
[8]
  UI: 1.29
[9]
  inhibition in vivo at 250 mg/kg: 64.2%

## CCc1cc2c(=O)n(NC(c3ccc([N+](=O)[O-])cc3)P(=O)(OC(C)C)OC(C)C)c(C)nc2s1 (stereo not given)
[10]
  inhibition at 50 µg/mL: 58.5%
[11]
  inhibition at 50 µg/mL: 58.1%
[12]
  inhibition at 50 µg/mL: 84.3%

## CC1(C)S[C@@H]2[C@H](NC(=O)[C@H](N)c3ccccc3)C(=O)N2[C@H]1C(=O)O [AMPICILLIN]
[13]
  zone of inhibition at 500 µg/mL: 24 mm
[14]
  zone of inhibition at 500 µg/mL: 22 mm
[15]
  zone of inhibition at 500 µg/mL: 25 mm
[16]
  zone of inhibition at 500 µg/mL: 21 mm

## Nc1c(C(=O)Nc2ccccc2)sc2nc(N3CCOCC3)nc(-c3ccccc3)c12
[1]
  IC50: 52.6 µM
[2]
  IC50: 40.7 µM

## c1cnc(C2=NOC(c3cc4cncnc4s3)C2)cn1 (stereo not given)
[3]
  zone of inhibition at 100 µg/mL: 11 mm
[4]
  zone of inhibition at 100 µg/mL: 11.5 mm
[5]
  zone of inhibition at 100 µg/mL: 12.5 mm
[6]
  zone of inhibition at 100 µg/mL: 13 mm

## COc1ccc(/C=C/C(=O)c2sc3nc(S)n(-c4ccccc4)c(=O)c3c2C)cc1
[17]
  IC50: 32.8 µM
[18]
  IC50: 39.5 µM
[1]
  IC50: 28.9 µM
[19]
  IC50: 28.9 µM
[2]
  IC50: 22.7 µM

## C[C@]12CC[C@H]3[C@@H](CC=C4CC(O)CC[C@@]43C)[C@@H]1CC[C@@H]2c1csc(N)c1C(=O)NN (stereo not given in full)
[7]
  Activity: 87%
[8]
  UI: 0.62
[9]
  inhibition in vivo at 250 mg/kg: 82.7%

## Cc1c(C(=O)/C=C/c2cccs2)sc2nc(S)n(-c3ccccc3)c(=O)c12
[17]
  IC50: 26.4 µM
[18]
  IC50: 25.7 µM
[1]
  IC50: 24 µM
[19]
  IC50: 18.4 µM
[2]
  IC50: 15.4 µM

## CCOP(=O)(OCC)C(Nn1c(C)nc2sc(CC)cc2c1=O)c1ccccc1 (stereo not given)
[10]
  inhibition at 50 µg/mL: 66.3%
[11]
  inhibition at 50 µg/mL: 66%
[12]
  inhibition at 50 µg/mL: 50.3%

## O=C(NN1C(S)=Nc2sc3c(c2C1c1ccccc1)CCCC3)c1ccccc1 (stereo not given)
[20]
  ED50: 62.7 mg/kg
[21]
  inhibition in vivo at 75 mg/kg: 41.8%
[22]
  inhibition in vivo at 75 mg/kg: 25.6%
[23]
  inhibition (INH): 57.9%

## CCOP(=O)(OCC)C(Nn1c(C)nc2sc(CC)cc2c1=O)c1ccc([N+](=O)[O-])cc1 (stereo not given)
[10]
  inhibition at 50 µg/mL: 54%
[11]
  inhibition at 50 µg/mL: 61.1%
[12]
  inhibition at 50 µg/mL: 59.8%

## FC(F)(F)Oc1ccc(C2=Nc3ccccc3SC(c3cc4cncnc4s3)C2)cc1 (stereo not given)
[13]
  zone of inhibition at 500 µg/mL: 15.3 mm
[14]
  zone of inhibition at 500 µg/mL: 15.1 mm
[15]
  zone of inhibition at 500 µg/mL: 12.3 mm
[16]
  zone of inhibition at 500 µg/mL: 13.2 mm
[24]
  zone of inhibition at 500 µg/mL: 10.6 mm

## Cc1c(C(=O)/C=C/c2cc(Br)cs2)sc2nc(S)n(-c3ccccc3)c(=O)c12
[17]
  IC50: 30.1 µM
[18]
  IC50: 31.3 µM
[1]
  IC50: 25.8 µM
[19]
  IC50: 27.7 µM
[2]
  IC50: 17.8 µM

## CC(=O)NN1C(S)=Nc2sc3c(c2C1c1ccccc1)CCCC3 (stereo not given)
[20]
  ED50: 66.7 mg/kg
[21]
  inhibition in vivo at 75 mg/kg: 39.9%
[22]
  inhibition in vivo at 75 mg/kg: 28.9%
[23]
  inhibition (INH): 35.1%

## CC(=O)O[C@H]1C(=O)[C@@]2(C)[C@H]([C@H](OC(=O)c3ccccc3)[C@]3(O)C[C@H](OC(=O)[C@H](O)[C@@H](NC(=O)c4ccccc4)c4ccccc4)C(C)=C1C3(C)C)[C@]1(OC(C)=O)CO[C@@H]1C[C@@H]2O [PACLITAXEL]
[1]
  IC50: 40.4 µM
[2]
  IC50: 45.8 µM

## CSC1=[N+](N)C(c2ccccc2)c2c(sc3c2CCCC3)N1.[I-] (stereo not given)
[20]
  ED50: 72.5 mg/kg
[21]
  inhibition in vivo at 75 mg/kg: 29.9%
[22]
  inhibition in vivo at 75 mg/kg: 10%
[23]
  inhibition (INH): 20.8%

## C[C@]12CC[C@H]3[C@@H](CC=C4C[C@H](O)CC[C@@]43C)[C@@H]1CC[C@@H]2c1csc(N)c1-c1nnc(SCC(=O)c2ccccc2)n1-c1ccccc1
[7]
  Activity: 99%
[8]
  UI: 0.83
[9]
  inhibition in vivo at 250 mg/kg: 76.9%
